pIC50: −log10 of the molar value. Active and inactive are the calls of the source. The calls are words filed in the database; no cut-off is given here.
Experiments:
MDA-MB-231 = assay: Cytotoxicity against human MDA-MB-231 cells expressing high level of topoisomerase I/II measured after 72 hrs by MTT assay; format: functional, cell-based; conditions: MDA-MB-231, 72 h
MCF7 = assay: Cytotoxicity against human MCF7 cells expressing high level of topoisomerase I/II measured after 72 hrs by MTT assay; format: functional, cell-based; conditions: MCF7, 72 h
HCT-116 [1] = assay: Cytotoxicity against human HCT-116 cells expressing high level of topoisomerase I/II measured after 72 hrs by MTT assay; format: functional, cell-based; conditions: HCT-116, 72 h
[2] = Cytotoxicity against human L02 cells measured after 72 hrs by MTT assay; format: toxicity, cell-based
A-375 [3] = assay: Cytotoxicity against human A-375 cells expressing high level of topoisomerase I/II measured after 72 hrs by MTT assay; format: functional, cell-based; conditions: A-375, 72 h
A549 = assay: Cytotoxicity against human A549 cells expressing high level of topoisomerase I/II measured after 72 hrs by MTT assay; format: functional, cell-based; conditions: A549, 72 h
SH-SY5Y = assay: Cytotoxicity against human SH-SY5Y cells expressing low level of topoisomerase I/II measured after 72 hrs by MTT assay; format: functional, cell-based
[4] = Aqueous solubility of the compound in saline equilibrating for 24 hrs by HPLC analysis; format: physicochemical
[5] = Cytotoxicity against human HEK293T cells measured after 72 hrs by MTT assay; format: toxicity, cell-based, HEK-293T
A-375 [6] = assay: Induction of cell cycle arrest in human A-375 cells assessed as accumulation of cells at G2 phase at 80 nM incubated for 24 hrs by PI based flow cytometric analysis (RVB = 20.34%); format: functional
[7] = biological target: T1, DNA topoisomerase 1 (Homo sapiens) (UniProt P11387); assay: Inhibition of DNA topoisomerase I (unknown origin) relaxation activity at 100 uM incubated for 30 mins by chemiDoc system
T1 sequence (whole entry): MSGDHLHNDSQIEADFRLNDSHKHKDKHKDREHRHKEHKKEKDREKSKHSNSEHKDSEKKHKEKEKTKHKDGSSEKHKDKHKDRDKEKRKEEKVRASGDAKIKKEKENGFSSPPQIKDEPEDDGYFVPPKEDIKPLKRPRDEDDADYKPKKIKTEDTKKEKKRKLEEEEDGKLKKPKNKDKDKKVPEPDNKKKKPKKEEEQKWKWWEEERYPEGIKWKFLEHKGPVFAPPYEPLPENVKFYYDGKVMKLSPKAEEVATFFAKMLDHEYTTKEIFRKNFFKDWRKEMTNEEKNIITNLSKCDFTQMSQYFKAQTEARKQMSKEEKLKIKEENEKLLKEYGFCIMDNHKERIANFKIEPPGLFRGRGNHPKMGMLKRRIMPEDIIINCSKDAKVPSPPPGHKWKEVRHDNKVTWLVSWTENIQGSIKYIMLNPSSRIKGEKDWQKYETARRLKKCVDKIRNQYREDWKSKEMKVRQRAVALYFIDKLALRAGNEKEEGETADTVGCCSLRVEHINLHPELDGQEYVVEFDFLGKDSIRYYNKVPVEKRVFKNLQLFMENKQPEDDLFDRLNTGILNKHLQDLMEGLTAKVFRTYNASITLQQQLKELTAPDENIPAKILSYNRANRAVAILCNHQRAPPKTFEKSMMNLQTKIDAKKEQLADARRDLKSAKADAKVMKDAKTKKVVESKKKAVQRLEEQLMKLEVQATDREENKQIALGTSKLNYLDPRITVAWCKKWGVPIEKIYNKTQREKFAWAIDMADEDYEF

A-375 [8] = assay: Induction of cell cycle arrest in human A-375 cells assessed as accumulation of cells at S phase at 80 nM incubated for 24 hrs by PI based flow cytometric analysis (RVB = 26.73%); format: functional
HCT-116 [9] = assay: Antiproliferative activity against doxorubicin resistant human HCT-116 cells measured after 72 hrs by MTT assay; format: functional, cell-based; conditions: HCT-116, 72 h
A-375 [10] = assay: Induction of cell cycle arrest in human A-375 cells assessed as accumulation of cells at G1 phase at 80 nM incubated for 24 hrs by PI based flow cytometric analysis (RVB = 52.94%); format: functional
HCT-116 [11] = assay: Antiproliferative activity against doxorubicin sensitive human HCT-116 cells measured after 72 hrs by MTT assay; format: functional, cell-based; conditions: HCT-116, 72 h

| SMILES | pIC50 (MDA-MB-231) | pIC50 (MCF7) | pIC50 (HCT-116 [1]) | IC50 at 72 h [2] [nM] | pIC50 (A-375 [3]) | pIC50 (A549) | pIC50 (SH-SY5Y) | solubility at 24 h [4] [µg/mL] | IC50 at 72 h [5] [nM] | Activity (A-375 [6]) [%] | inhibition [7] | Activity (A-375 [8]) [%] | pIC50 (HCT-116 [9]) | Activity (A-375 [10]) [%] | pIC50 (HCT-116 [11]) |
| --- | --- | --- | --- | --- | --- | --- | --- | --- | --- | --- | --- | --- | --- | --- | --- |
| O=C1c2c[n+]([O-])c3ccccc3c2C(=O)c2c1c1ccccc1n2Cc1cn([C@H]2C[C@H](O)[C@@H](CO)O2)nn1 | 6.24 | 6.28 | 6.92 | 280 | 6.41 | 6.46 | 6.21 | > 5000 | 3600 | – | – | – | – | – | – |
| O=C1c2c[n+]([O-])c3ccccc3c2C(=O)c2[nH]c3ccccc3c21 [CALOTHRIXIN A] | 6.32 | 6.27 | 6.21 | 400 | 6.18 | 6.49 | 5.86 | < 5 | 890 | 10.46 | Active | 33.26 | 6.09 | 56.28 | 6.19 |
| O=C1c2c[n+]([O-])c3ccccc3c2C(=O)c2c1c1ccccc1n2CCCCN1CCNCC1 | 5.48 | 4.92 | 6.15 | 1380 | 6.34 | 6.27 | 5.91 | – | 760 | – | Active | – | – | – | – |
| CN1CCN(CCCCCCn2c3c(c4ccccc42)C(=O)c2c[n+]([O-])c4ccccc4c2C3=O)CC1 | 5.62 | 6.40 | 5.54 | 3800 | 6.20 | 6.48 | 6.04 | – | 5800 | – | – | – | – | – | – |
| CC(=O)OC[C@H]1O[C@@H](n2cc(Cn3c4c(c5ccccc53)C(=O)c3c[n+]([O-])c5ccccc5c3C4=O)nn2)[C@H](OC(C)=O)[C@@H]1OC(C)=O | 6.22 | 6.34 | 6.19 | 270 | 6.82 | 5.94 | 5.72 | – | 900 | – | – | – | – | – | – |
| CN(C)CCCCCn1c2c(c3ccccc31)C(=O)c1c[n+]([O-])c3ccccc3c1C2=O | 6.62 | 6.70 | 6.33 | 240 | 6.25 | 6.68 | 6.43 | – | 70 | – | – | – | – | – | – |
| CC(=O)OC[C@H]1O[C@@H](n2cc(Cn3c4c(c5ccccc53)C(=O)c3c[n+]([O-])c5ccccc5c3C4=O)nn2)C[C@@H]1OC(C)=O | 6.26 | 6.26 | 6.92 | 350 | 6.85 | 5.74 | < 6.30 | – | 2540 | – | – | – | – | – | – |
| CN(C)CCCCn1c2c(c3ccccc31)C(=O)c1c[n+]([O-])c3ccccc3c1C2=O | 6.46 | 6.66 | 6.35 | 300 | 6.33 | 6.51 | 6.60 | – | 520 | – | Active | – | – | – | – |
| CC(=O)OC[C@@H]1OC(C)(C)O[C@H]1Cn1cc(Cn2c3c(c4ccccc42)C(=O)c2c[n+]([O-])c4ccccc4c2C3=O)nn1 | < 6.00 | < 6.00 | 6.24 | 1060 | 6.37 | < 6.00 | < 6.00 | – | 10200 | – | – | – | – | – | – |
| CC1(C)O[C@@H](CO)[C@H](Cn2cc(Cn3c4c(c5ccccc53)C(=O)c3c[n+]([O-])c5ccccc5c3C4=O)nn2)O1 | 6.17 | 6.16 | 6.89 | 500 | 6.72 | 6.43 | < 6.00 | – | 120 | – | – | – | – | – | – |
| COc1cccc2c1C(=O)c1c(O)c3c(c(O)c1C2=O)C[C@@](O)(C(=O)CO)C[C@@H]3O[C@H]1C[C@H](N)[C@H](O)[C@H](C)O1 [DOXORUBICIN] | 6.09 | – | 6.47 | – | 6.59 | – | 6.10 | – | – | – | – | – | 5.69 | – | 6.54 |
| CN1CCN(CCCCCn2c3c(c4ccccc42)C(=O)c2c[n+]([O-])c4ccccc4c2C3=O)CC1 | 5.64 | 5.90 | 5.91 | 1640 | 5.77 | 6.06 | 6.08 | – | – | – | Active | – | – | – | – |
| O=C1c2c[n+]([O-])c3ccccc3c2C(=O)c2c1c1ccccc1n2CCCN1CCOCC1 | 6.26 | 6.35 | 6.39 | 550 | 6.48 | 6.40 | 6.23 | – | 170 | – | – | – | – | – | – |
| CC(=O)OC[C@H]1O[C@@H](n2cc(Cn3c4c(c5ccccc53)C(=O)c3c[n+]([O-])c5ccccc5c3C4=O)nn2)[C@H](OC(C)=O)[C@@H](OC(C)=O)[C@@H]1OC(C)=O | 6.40 | 6.48 | 6.12 | 270 | 6.25 | 6.54 | 6.19 | – | 2430 | – | – | – | – | – | – |
| CC(=O)OC[C@H]1O[C@H](n2cc(Cn3c4c(c5ccccc53)C(=O)c3c[n+]([O-])c5ccccc5c3C4=O)nn2)C[C@@H]1OC(C)=O | 5.92 | 5.89 | 6.42 | 2780 | 6.26 | 5.94 | < 6.00 | – | 120 | – | – | – | – | – | – |
| O=C1c2c[n+]([O-])c3ccccc3c2C(=O)c2c1c1ccccc1n2Cc1cn(C[C@H](O)CO)nn1 | 5.88 | < 6.00 | 6.40 | 1130 | 6.46 | 5.99 | < 6.00 | – | 8880 | – | – | – | – | – | – |

From ChEMBL document CHEMBL5154929, “Optimization of the Natural Product Calothrixin A to Discover Novel Dual Topoisomerase I and II Inhibitors with Improved Anticancer Activity” (J Med Chem, 2022)
